The target in test [1] is human recombinant TDO2 enzyme (Homo sapiens (Human), UniProt P48775). Kind of test: Assay for TDO2 enzymatic activity determination. Type of test: biochemical. The following applies: human recombinant TDO2, L-Trp 1 mM, kynurenine absorbance at 480 nm. As for the experimental part:
The compounds of formula I, its subformulae, and enantiomers, salts and solvates thereof, are useful to inhibit the enzymatic activity of human TDO2. To measure the TDO2 activity, the procedure described in Dolusic et al. J. Med. Chem.; 2011, 54, […] was adapted: the reaction mixture contained (final concentrations) potassium phosphate buffer (50 mM, pH 7.5), ascorbic acid ([…]), methylene blue (0.125 μM), catalase (40 units/mL, from bovine liver, Sigma), and human recombinant TDO2 enzyme (prepared as described in Dolusic et al. J. Med. Chem.; 2011, 54, 5320-5334; 0.9 μg) without or with the compounds of the present invention at the indicated concentrations (total volume 112.5 μL). The reaction was initiated by the addition of 37.5 μL of L-Trp (final concentration 1 mM) at room temperature. The reaction was conducted at room temperature during one hour and stopped by the addition of 30 μL of 30% (w/v) trichloroacetic acid. To convert N-formylkynurenine into kynurenine, the reaction mixture was incubated at 65° C. for 30 min. […] Kynurenine concentrations were determined by measuring the absorbance at 480 nm. A standard curve was made with pure kynurenine. The TDO activity was measured as described above using ten serial concentrations of the compounds of the present invention. Data were fitted using the Prism™ software (GraphPad Software, Inc.) using standard parameters.

For test [2], the target named is hTDO2 in human glioblastoma A172 cells (Homo sapiens (Human), UniProt P48775). In words: Cellular assay for TDO2 activity determination in A172 cells. Type of test: cell-based. The note with it: overnight incubation, kynurenine absorbance at 480 nm. In short, it runs like this: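 Glioblastoma A172 cells with endogenous hTDO2, 1.25×10^4 cells/well, incubated overnight at 37° C. with ten serial compound concentrations in IMDM with 2% FBS. Supernatant kynurenine, after TCA precipitation and 4-(dimethylamino)-benzaldehyde reaction, read at 480 nm against kynurenine standard curve; data curve-fitted.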
Chain of hTDO2 in human glioblastoma A172 cells (P48775 whole entry): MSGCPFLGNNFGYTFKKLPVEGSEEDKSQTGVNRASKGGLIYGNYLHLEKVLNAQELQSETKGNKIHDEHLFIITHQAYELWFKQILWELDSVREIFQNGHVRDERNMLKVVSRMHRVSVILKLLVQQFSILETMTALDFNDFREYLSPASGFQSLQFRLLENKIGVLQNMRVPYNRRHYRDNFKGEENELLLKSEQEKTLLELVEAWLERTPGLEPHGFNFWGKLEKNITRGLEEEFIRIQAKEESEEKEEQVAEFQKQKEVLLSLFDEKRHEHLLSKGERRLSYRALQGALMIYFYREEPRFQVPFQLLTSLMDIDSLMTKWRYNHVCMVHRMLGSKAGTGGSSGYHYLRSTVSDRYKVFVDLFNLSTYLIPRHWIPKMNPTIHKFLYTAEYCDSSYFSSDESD

Chain of human recombinant TDO2 enzyme (P48775 whole entry): as above

As for `CS(=O)(=O)c1ccc(-c2c[nH]c3cc(F)ccc23)cc1` [Example 1, 6-Fluoro-3-(4-methanesulfonyl-phenyl)-1H-indole], the IC50 – broadly, the midpoint of a concentration-inhibition curve – in test [1] stood at 1500 nM; in test [2] it was 84 nM.
For `NCCNC(=O)c1ccc(-c2c[nH]c3cc(F)ccc23)cc1` [Example 2, N-(2-aminoethyl)-4-(6-fluoro-1H-indol-3-yl)benzamide], in that order: 1100 nM and 150 nM.
On the same counts, the results for `O=C(c1ccc(-c2c[nH]c3cc(F)ccc23)cc1)N1CCNCC1` [Example 3, (4-(6-fluoro-1H-indol-3-yl)phenyl)(piperazin-1-yl)methanone] are 2100 nM and 110 nM.
On the same counts, the results for `O=S(=O)(c1ccc(-c2c[nH]c3cc(F)ccc23)cc1)N1CCNCC1` [Example 4, 6-fluoro-3-(4-(piperazin-1-ylsulfonyl)phenyl)-1H-indole] are 2100 nM and 130 nM.
Regarding `O=S(=O)(c1ccc(-c2c[nH]c3cc(F)ccc23)cc1)N1CCOCC1` [Example 5, 4-((4-(6-fluoro-1H-indol-3-yl)phenyl)sulfonyl)morpholine], the IC50 was 4700 nM in test [1] and 250 nM in test [2].
For the compound `NS(=O)(=O)c1ccc(-c2c[nH]c3cc(F)ccc23)cc1` [Example 6, 4-(6-fluoro-1H-indol-3-yl)benzenesulfonamide], the IC50 in test [1] is 1000 nM; in test [2], 82 nM.
On the same counts, the results for `O=S(=O)(c1cccc(-c2c[nH]c3cc(F)ccc23)c1)N1CCNCC1` [Example 7, 6-fluoro-3-(3-(piperazin-1-ylsulfonyl)phenyl)-1H-indole] are 4400 nM and 340 nM.
Take `NCCNS(=O)(=O)c1ccc(-c2c[nH]c3cc(F)ccc23)cc1` [Example 8, N-(2-aminoethyl)-4-(6-fluoro-1H-indol-3-yl)-benzenesulfonamide]: the IC50 in test [1] amounted to 890 nM; in test [2], 95 nM.
On the same counts, the results for `NCCNS(=O)(=O)c1cccc(-c2c[nH]c3cc(F)ccc23)c1` [Example 9, N-(2-aminoethyl)-3-(6-fluoro-1H-indol-3-yl)benzenesulfonamide] are 1800 nM and 240 nM.
As for `NS(=O)(=O)c1cccc(-c2c[nH]c3cc(F)ccc23)c1` [Example 10, 3-(6-fluoro-1H-indol-3-yl)benzenesulfonamide], the IC50 in test [1] stood at 2400 nM; in test [2] it was 83 nM.
Take `CS(=O)(=O)NCCNS(=O)(=O)c1ccc(-c2c[nH]c3cc(F)ccc23)cc1` [Example 21, 4-(6-fluoro-1H-indol-3-yl)-N-(2-(methylsulfonamido)-ethyl)benzenesulfonamide]: the values for the IC50 in test [1] and in test [2] were 740 nM and 120 nM, respectively.
For `NC(=O)CCNS(=O)(=O)c1ccc(-c2c[nH]c3cc(F)ccc23)cc1` [Example 26, 3-(4-(6-fluoro-1H-indol-3-yl)phenylsulfonamido)propanamide], in that order: 730 nM and 110 nM.
Take `N#Cc1cc(-c2c[nH]c3cc(F)ccc23)ccc1S(=O)(=O)N1CCNCC1` [Example 32, 5-(6-Fluoro-1H-indol-3-yl)-2-(piperazine-1-sulfonyl)-benzonitrile]: the figures for the IC50 in test [1] and in test [2] were 730 nM and 170 nM, respectively.
Regarding `Cc1cc(-c2c[nH]c3cc(F)ccc23)ccc1S(=O)(=O)N1CCNCC1` [Example 34, 6-fluoro-3-(3-methyl-4-(piperazin-1-ylsulfonyl)-phenyl)-1H-indole], the IC50 was 520 nM in test [1] and 290 nM in test [2].
With `O=S(=O)(c1ccc(-c2c[nH]c3cc(F)ccc23)cc1O)N1CCNCC1` [Example 35, 5-(6-fluoro-1H-indol-3-yl)-2-(piperazin-1-ylsulfonyl)phenol], the IC50 in test [1] came to 420 nM; in test [2], 330 nM.
For `NCCNS(=O)(=O)c1cc(-c2c[nH]c3cc(F)ccc23)ccc1Cl` [Example 36, N-(2-aminoethyl)-2-chloro-5-(6-fluoro-1H-indol-3-yl)-benzenesulfonamide], in that order: 770 nM and 430 nM.
For `O=C1CN(S(=O)(=O)c2ccc(-c3c[nH]c4cc(F)ccc34)cc2)CCN1` [Example 40, 4-((4-(6-fluoro-1H-indol-3-yl)phenyl)sulfonyl)piperazin-2-one], in that order: 930 nM and 170 nM.
Turning to `CNC(=O)CCNS(=O)(=O)c1ccc(-c2c[nH]c3cc(F)ccc23)cc1` [Example 50, 3-(4-(6-fluoro-1H-indol-3-yl)phenylsulfonamido)-N-methylpropanamide], the IC50 came to 960 nM in test [1] and 110 nM in test [2].
On the same counts, the results for `O=S(=O)(c1ccc(-c2c[nH]c3cc(F)ccc23)cc1)N1C[C@@H](O)[C@@H](O)C1` [Example 58, (cis)-1-((4-(6-fluoro-1H-indol-3-yl)phenyl)sulfonyl)-pyrrolidine-3,4-diol] are 530 nM and 130 nM.
On the same counts, the results for `O=S(=O)(c1c(Cl)cc(-c2c[nH]c3cc(F)ccc23)cc1Cl)N1CCNCC1` [Example 76, 3-(3,5-dichloro-4-(piperazin-1-ylsulfonyl)phenyl)-6-fluoro-1H-indole] are 470 nM and 833 nM.
`O=S(=O)(c1ccc(-c2c[nH]c3cc(F)ccc23)cc1)N1CC[C@@H](O)C1` [Example 77, (R)-1-((4-(6-fluoro-1H-indol-3-yl)phenyl)sulfonyl)-pyrrolidin-3-ol]: the figures for the IC50 in test [1] and in test [2] were 170 nM and 55 nM, respectively.
For `O=S(=O)(c1ccc(-c2c[nH]c3cc(F)ccc23)cc1)N1CC[C@H](O)C1` [Example 79, (S)-1-((4-(6-fluoro-1H-indol-3-yl)phenyl)sulfonyl)-pyrrolidin-3-ol], in that order: 120 nM and 94 nM.
Take `N[C@H]1CN(S(=O)(=O)c2ccc(-c3c[nH]c4cc(F)ccc34)cc2)C[C@@H]1F` [Example 80, (3S,4 S)-4-fluoro-1-{[4-(6-fluoro-1H-indol-3-yl)phenyl]sulfonyl}pyrrolidin-3-amine]: the IC50 in test [1] stood at 900 nM; in test [2], 170 nM.
On the same counts, the results for `NC(=O)COC1CCN(S(=O)(=O)c2ccc(-c3c[nH]c4cc(F)ccc34)cc2)CC1` [Example 84, 2-[(1-{[4-(6-fluoro-1H-indol-3-yl)phenyl]sulfonyl}piperidin-4-yl)-oxy]acetamide] are 1900 nM and 260 nM.
As to `CN1CC(CNS(=O)(=O)c2ccc(-c3c[nH]c4cc(F)ccc34)cc2)OCC1=O` (stereo not drawn) [Example 86, 4-(6-fluoro-1H-indol-3-yl)-N-[(4-methyl-5-oxomorpholin-2-yl)methyl]benzenesulfonamide], the IC50 in test [1] was 1300 nM; in test [2], 260 nM.
For `O=S1(=O)CCC(NS(=O)(=O)c2ccc(-c3c[nH]c4cc(F)ccc34)cc2)C1` (stereo not drawn) [Example 87, N-(1,1-dioxidotetrahydrothiophen-3-yl)-4-(6-fluoro-1H-indol-3-yl)-benzenesulfonamide], in that order: 930 nM and 170 nM.
On the same counts, the results for `CS(=O)(=O)CCNS(=O)(=O)c1ccc(-c2c[nH]c3cc(F)ccc23)cc1` [Example 88, 4-(6-fluoro-1H-indol-3-yl)-N-[2-(methylsulfonyl)ethyl]-benzene-sulfonamide] are 940 nM and 95 nM.

The record behind these values is patent publication US10544095B2 (Pfizer Inc., priority 2015, dated 2020).
